Reference: patent publication US11415579B2, “Assay for measuring a rate of reaction between a target and a ligand candidate” (Imperial College Innovations Ltd., priority 2016, dated 2022)

How the values were obtained:
Cdk2(T182C) (C177A) = target: T1, Cdk2(T182C) (C177A) (Homo sapiens, UniProt P24941, C177A/T182C); assay: Kinetic thiol consumption assay with Cdk2 mutant T182C; assay type: binding; parameters: key to Rate enhancement, Cdk2 T182C: rate constant with Cdk2 ÷ rate constant with model thiol (fold); conditions: additional mutation C177A; for Rate constant with Cdk2 T182C: Protein: Cdk2, cysteine position T182C, in h^-1
T1 construct: poly-histidine; made in house; host or cells: E. coli
Summary of the method: (§1)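 Read-out is fluorescence at 380/470 nm, taken after 1 h at room temperature and normalized to a DMSO/thiol-only control over time. Thiol (5 μM Cdk2 mutant or model thiol) was in degassed pH 8 phosphate buffer with 2% v/v TCEP beads. Acrylamide rate constants for Cdk2 were divided by those with model thiol.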

[1] = Kinetic thiol consumption assay with model thiol glutathione; assay type: physicochemical; parameters: Rate constant with glutathione (k(GSH)): unit not given here; conditions: for Rate constant with glutathione (k(GSH)): 500 μM ligand, 5 μM thiol, phosphate buffer pH 8; for Rate constant with Glutathione: Protein: Glutathione, cysteine position NA, in h-1
Summary of the method: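 First, 5 μM glutathione in degassed phosphate buffer (pH 8) receives immobilized TCEP beads (2% v/v). Then acrylamide is added and plates incubate 1 h at room temperature. Finally, fluorescence (380/470 nm) is normalized and fitted to first-order decay for rate constants.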

[2] = target: T2, human cyclin-dependent kinase 2 (Cdk2) (Homo sapiens, UniProt P24941); assay: Kinetic thiol consumption assay with wild type Cdk2 (C177); assay type: binding; parameters: key to Rate enhancement, Cdk2 WT: k(Cdk2) divided by k(model thiol); Rate constant with Cdk2 (k(Cdk2)): unit not given here; conditions: for Rate constant with Cdk2 (k(Cdk2)): 500 μM ligand, 5 μM thiol, phosphate buffer pH 8; for Rate enhancement, Cdk2 WT: no additional mutations; for Rate constant with Cdk2 WT: Protein: Cdk2, cysteine position WT, in h^-1; for k(Cdk2)/k(Cdk2_mut) rate enhancement: model thiol Cdk2[C177A, F80C, K278C]; for k(Cdk2)/k(GSH) rate enhancement: model thiol glutathione
T2 construct: poly-histidine; made in house; host or cells: E. coli
Summary of the method: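 Rate constants came from first-order exponential decay fits of normalized fluorescence against time, with thiol (5 μM) in degassed pH 8 phosphate buffer containing 2% v/v TCEP beads and reads after 1 h at room temperature.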

Cdk2[C177A, F80C, K278C] = target: T3, Cdk2[C177A, F80C, K278C] (Homo sapiens, UniProt P24941, C177A/F80C/K278C); assay: Kinetic thiol consumption assay with mutant Cdk2 as model thiol; assay type: binding; parameters: unit not given here; conditions: 500 μM ligand, 5 μM thiol, phosphate buffer pH 8
T3 construct: poly-histidine; made in house; host or cells: E. coli
Summary of the method: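 First-order rate constants were derived by exponential-decay fitting of DMSO/thiol-normalized fluorescence (380/470 nm) over time at room temperature. Thiol was 5 μM E. coli-expressed His-tagged Cdk2 mutant C177A/F80C/K278C in degassed pH 8 phosphate buffer containing 2% v/v TCEP beads.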

Cdk2(N272C) (C177A) = target: T4, Cdk2(N272C) (C177A) (Homo sapiens, UniProt P24941, C177A/N272C); assay: Kinetic thiol consumption assay with Cdk2 mutant N272C; assay type: binding; parameters: key to Rate enhancement, Cdk2 N272: rate constant with Cdk2 ÷ rate constant with model thiol (fold); conditions: for Rate enhancement, Cdk2 N272: Cdk2 N272, additional mutation C177A; for Rate constant with Cdk2 N272C: Protein: Cdk2, cysteine position N272C, additional mutation C177A, in h^-1
T4 construct: poly-histidine; made in house; host or cells: E. coli
Summary of the method: as §1

Cdk2(C177A, F80C) = target: T5, Cdk2(C177A, F80C) (Homo sapiens, UniProt P24941, C177A/F80C); assay: Kinetic thiol consumption assay with Cdk2 mutant F80C, incl. kobs versus concentration (Kd, k2); assay type: binding; parameters: key to Rate enhancement, Cdk2 F80C: Cdk2 rate constant divided by model-thiol rate constant; conditions: additional mutation C177A; for Rate constant with Cdk2 F80C: Protein: Cdk2, cysteine position F80C, in h^-1
T5 construct: poly-histidine; made in house; host or cells: E. coli
Summary of the method: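 His-tagged Cdk2(C177A/F80C) from E. coli or model thiol, 5 μM in degassed phosphate buffer pH 8 with TCEP beads, reacted with acrylamide ligands; fluorescence (ex/em 380/470 nm) normalized to DMSO control and fitted to first-order decay for kobs. Kd and k2 obtained from hyperbolic fit of kobs versus ligand concentration.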

Cdk2(H71C) (C177A) = target: T6, Cdk2(H71C) (C177A) (Homo sapiens, UniProt P24941, C177A/H71C); assay: Kinetic thiol consumption assay with Cdk2 mutant H71C; assay type: binding; parameters: key to Rate enhancement, Cdk2 H71C: rate constant with Cdk2 ÷ rate constant with model thiol (fold); conditions: additional mutation C177A; for Rate constant with Cdk2 H71C: Protein: Cdk2, cysteine position H71C, in h^-1
T6 construct: poly-histidine; made in house; host or cells: E. coli
Summary of the method: as §1

Cdk2(R122C) (C177A) = target: T7, Cdk2(R122C) (C177A) (Homo sapiens, UniProt P24941, C177A/R122C); assay: Kinetic thiol consumption assay with Cdk2 mutant R122C; assay type: binding; parameters: key to Rate enhancement, Cdk2 R122C: rate constant with Cdk2 ÷ rate constant with model thiol (fold); conditions: additional mutation C177A; for Rate constant with Cdk2 R122C: Protein: Cdk2, cysteine position R122C, in h-1
T7 construct: poly-histidine; made in house; host or cells: E. coli
Summary of the method: as §1

Cdk2(S181C) (C177A) = target: T8, Cdk2(S181C) (C177A) (Homo sapiens, UniProt P24941, C177A/S181C); assay: Kinetic thiol consumption assay with Cdk2 mutant S181C; assay type: binding; parameters: key to Rate enhancement, Cdk2 S181C: rate constant with Cdk2 ÷ rate constant with model thiol (fold); conditions: additional mutation C177A; for Rate constant with Cdk2 S181C: Protein: Cdk2, cysteine position S181C, in h^-1
T8 construct: poly-histidine; made in house; host or cells: E. coli
Summary of the method: as §1

Cdk2(S276C) (C177A) = target: T9, Cdk2(S276C) (C177A) (Homo sapiens, UniProt P24941, C177A/S276C); assay: Kinetic thiol consumption assay with Cdk2 mutant S276C; assay type: binding; parameters: key to Rate enhancement, Cdk2 S276C: rate constant with Cdk2 ÷ rate constant with model thiol (fold); conditions: additional mutation C177A; for Rate constant with Cdk2 S276C: Protein: Cdk2, cysteine position S276C, in h^-1
T9 construct: poly-histidine; made in house; host or cells: E. coli
Summary of the method: as §1

C=CC(=O)N(Cc1ccc2c(c1)CCO2)C1CCCC1 [CA-184]
Rate enhancement, Cdk2 T182C (Cdk2(T182C) (C177A)): 11.73 | Rate constant with Cdk2 T182C (Cdk2(T182C) (C177A)): 0.3446 | Rate constant with glutathione (k(GSH)) [1]: 0.01856 | Rate constant with Glutathione [1]: 0.02938 | Rate constant with Cdk2 (k(Cdk2)) [2]: 0.2235 | Rate enhancement, Cdk2 WT [2]: 7.607 | Rate constant with Cdk2 WT [2]: 0.2235 | hit classification, Example 1 ([2]; hits defined as kCdk2/kGSH>5.8 (3 standard deviations over the mean)): hit fragments | k(Cdk2)/k(Cdk2_mut) rate enhancement [2]: 3.034 | k(Cdk2)/k(GSH) rate enhancement [2]: 12.04 | Rate constant with Cdk2[C177A, F80C, K278C] (k(Cdk2_mut)) (Cdk2[C177A, F80C, K278C]): 0.07366 | Rate enhancement, Cdk2 N272 (Cdk2(N272C) (C177A)): 7.192 | Rate constant with Cdk2 N272C (Cdk2(N272C) (C177A)): 0.2113 | Rate enhancement, Cdk2 F80C (Cdk2(C177A, F80C)): 2.208 | Rate constant with Cdk2 F80C (Cdk2(C177A, F80C)): 0.06488 | Rate enhancement, Cdk2 H71C (Cdk2(H71C) (C177A)): 7.662 | Rate constant with Cdk2 H71C (Cdk2(H71C) (C177A)): 0.2251 | Rate enhancement, Cdk2 R122C (Cdk2(R122C) (C177A)): 0.7583 | Rate constant with Cdk2 R122C (Cdk2(R122C) (C177A)): 0.02228 | Rate enhancement, Cdk2 S181C (Cdk2(S181C) (C177A)): 10.57 | Rate constant with Cdk2 S181C (Cdk2(S181C) (C177A)): 0.3106 | Rate enhancement, Cdk2 S276C (Cdk2(S276C) (C177A)): 20.94 | Rate constant with Cdk2 S276C (Cdk2(S276C) (C177A)): 0.6153

C=CC(=O)N1CCn2cccc2C1c1ccccc1 (stereo not drawn) [CA-187]
Rate enhancement, Cdk2 T182C (Cdk2(T182C) (C177A)): 4.62 | Rate constant with Cdk2 T182C (Cdk2(T182C) (C177A)): 0.2035 | Rate constant with glutathione (k(GSH)) [1]: 0.04403 | Rate constant with Glutathione [1]: 0.04405 | Rate constant with Cdk2 (k(Cdk2)) [2]: 0.02811 | Rate enhancement, Cdk2 WT [2]: 0.6381 | Rate constant with Cdk2 WT [2]: 0.02811 | k(Cdk2)/k(Cdk2_mut) rate enhancement [2]: 1.586 | k(Cdk2)/k(GSH) rate enhancement [2]: 0.6384 | Rate constant with Cdk2[C177A, F80C, K278C] (k(Cdk2_mut)) (Cdk2[C177A, F80C, K278C]): 0.01772 | Rate enhancement, Cdk2 N272 (Cdk2(N272C) (C177A)): 0.7126 | Rate constant with Cdk2 N272C (Cdk2(N272C) (C177A)): 0.03139 | Rate enhancement, Cdk2 F80C (Cdk2(C177A, F80C)): 0.3805 | Rate constant with Cdk2 F80C (Cdk2(C177A, F80C)): 0.01676 | Rate enhancement, Cdk2 H71C (Cdk2(H71C) (C177A)): 1.456 | Rate constant with Cdk2 H71C (Cdk2(H71C) (C177A)): 0.06414 | Rate enhancement, Cdk2 R122C (Cdk2(R122C) (C177A)): 0.4465 | Rate constant with Cdk2 R122C (Cdk2(R122C) (C177A)): 0.01967 | Rate enhancement, Cdk2 S181C (Cdk2(S181C) (C177A)): 0.2036 | Rate constant with Cdk2 S181C (Cdk2(S181C) (C177A)): 0.00897 | Rate enhancement, Cdk2 S276C (Cdk2(S276C) (C177A)): 1.852 | Rate constant with Cdk2 S276C (Cdk2(S276C) (C177A)): 0.08156
